Test results from PubChem BioAssay (NCI).
Where “and” joins values, the source holds several entries; their conditions need not be identical. Identical values can stand only once.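 Interpolation was linear, between the two tested concentrations surrounding the appropriate level; five concentrations were tested over 48 hours in 96-well plates. GI50 marks 50% less growth. At the TGI there is no net growth.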

Columns and labels:
Assay in all cases: DTP human tumour cell line panel, 48 h
[1] = tested on: SF-295 CNS
[2] = tested on: SK-MEL-28 melanoma
[3] = tested on: NCI-H522 lung
[4] = tested on: MDA-MB-231 breast
[5] = tested on: T-47D breast
[6] = tested on: PC-3 prostate
[7] = tested on: SNB-75 CNS
[8] = tested on: SF-268 CNS
[9] = tested on: UACC-257 melanoma
[10] = tested on: HOP-62 NSCLC

Molecule `COc1ccc2c(O)c(/C=C3\N=Nc4ncccc43)oc2c1C[C@H]1CCNC[C@H]1F` has a GI50 [1] of 0.343 µM, a TGI [1] of 11.9 µM and a GI50 [2] of 2.22 µM. It also gave a TGI [2] of 12 µM, a GI50 [3] of 0.206 µM and a TGI [3] of 2.23 µM. It also gave a GI50 [4] of 0.184 µM, a TGI [4] of 3.02 µM and a GI50 [5] of 3.46 µM. For the same molecule, the TGI [5] was 21.1 µM, the GI50 [6] was 0.267 µM and the TGI [6] was 11.1 µM. For the same molecule, the GI50 [7] was 0.185 µM, the TGI [7] was 1.54 µM and the GI50 [8] was 0.296 µM. For the same molecule, the TGI [8] was 10.4 µM, the GI50 [9] was 2.66 µM and the TGI [9] was 10.2 µM. The GI50 [10] was 0.409 µM and the TGI [10] was 3.94 µM.
`O=C(c1ccccn1)c1nc(-c2ccc(Cl)c(Cl)c2)nc2ccc(Cl)cc12` showed a TGI [1] greater than 100 µM, a TGI [2] greater than 100 µM and a TGI [7] of 35 µM. For the same molecule, the TGI [9] was greater than 100 µM and the TGI [10] was greater than 100 µM.
For `c1ccc(CCCC2Sc3cccc4cccc(c34)S2)cc1`, the TGI [1] was greater than 100 µM, the TGI [2] was greater than 100 µM and the TGI [3] was greater than 100 µM. For the same molecule, the TGI [7] was greater than 100 µM, the TGI [8] was greater than 100 µM and the TGI [10] was greater than 100 µM.
Work on `CCCCNC(=O)OCC(COc1ccccc1OC)OC(=O)NCCCC` (configuration not stated) yielded a TGI [1] greater than 100 µM, a TGI [2] greater than 100 µM and a TGI [3] greater than 100 µM. The TGI [7] was greater than 100 µM, the TGI [8] was greater than 100 µM and the TGI [9] was greater than 100 µM. The TGI [10] was greater than 100 µM.
In the case of `S=c1nc[nH]c2nc[nH]c12`, the GI50 [1] is reported as 1.76 µM and 12.3 µM, the TGI [1] is reported as > 100 µM and 735 µM and > 750 µM and the GI50 [2] is reported as 79.2 µM. For the same molecule, the TGI [2] was greater than 750 µM, the GI50 [3] was 5.3 µM and 8.69 µM and the TGI [3] was > 100 µM and 302 µM and > 750 µM. For the same molecule, the TGI [4] was > 100 µM and 694 µM and > 750 µM, the GI50 [5] was 0.812 µM and 5.81 µM and the TGI [5] was greater than 627 µM. The GI50 [6] was 7.96 µM and 18.7 µM, the TGI [6] was greater than 750 µM and the TGI [7] was > 100 µM and 402 µM and > 621 µM. The GI50 [8] was 12.3 µM, the TGI [8] was > 100 µM and 681 µM and > 750 µM and the GI50 [9] was > 100 µM and 43.7 µM. The TGI [9] was greater than 750 µM, the GI50 [10] was 2.09 µM and 8 µM and the TGI [10] was > 100 µM and 526 µM and > 750 µM.
`Cc1cc(Cl)ccc1NC(=O)C(=O)Cc1ccc([N+](=O)[O-])c([N+](=O)[O-])c1CC(=O)C(=O)Nc1ccc(Cl)cc1C` was tested, and the TGI [1] was greater than 100 µM, the TGI [2] was greater than 100 µM and the TGI [3] was greater than 100 µM. It also gave a TGI [7] greater than 100 µM, a TGI [8] greater than 100 µM and a TGI [9] greater than 100 µM. It also gave a TGI [10] greater than 100 µM.
With `COc1ccc2[nH]c3c(C)c4cc[n+](C)cc4c(C)c3c2c1` the GI50 [1] was 0.107 µM, the GI50 [2] was 3.07 µM and the TGI [2] was 10.8 µM [middle of 4 runs]. The GI50 [3] was 0.167 µM and 0.0825 µM, the GI50 [4] was 6.34 µM and 1.89 µM and 7.41 µM and the TGI [4] was 53 µM and 133 µM. For the same molecule, the GI50 [5] was 0.88 µM and 0.257 µM and 1.03 µM, the TGI [5] was 12.6 µM and 3.63 µM and 11.2 µM and the TGI [6] was 99.3 µM and > 250 µM. For the same molecule, the GI50 [7] was 0.158 µM and 0.324 µM, the TGI [7] was 801 nM [middle of 4 runs] and the GI50 [8] was 0.0504 µM and 0.0385 µM. For the same molecule, the GI50 [9] was 6.27 µM and 5.41 µM, the TGI [9] was 54.5 µM [middle of 4 runs] and the GI50 [10] was 0.311 µM and 0.24 µM. For the same molecule, the TGI [10] was 2.24 µM [middle of 4 runs].
Molecule `C/C(=C1/N=C(c2ccccc2)OC1=O)c1ccc(C)cc1` has a TGI [1] greater than 100 µM, a TGI [2] greater than 100 µM and a TGI [3] greater than 100 µM. For the same molecule, the TGI [4] was greater than 100 µM, the TGI [5] was greater than 100 µM and the TGI [6] was greater than 100 µM. It also gave a TGI [8] greater than 100 µM, a TGI [9] greater than 100 µM and a TGI [10] greater than 100 µM.
`COc1cc([N+](=O)[O-])c(S(=O)(=O)O)cc1N` was tested, and the TGI [2] was greater than 100 µM, the TGI [3] was greater than 100 µM and the TGI [4] was greater than 100 µM. The TGI [5] was greater than 100 µM, the TGI [6] was greater than 100 µM and the TGI [7] was greater than 100 µM. It also gave a TGI [8] greater than 100 µM, a TGI [9] greater than 100 µM and a TGI [10] greater than 100 µM.
`COc1cc2c(cc1OC)C(=O)Cc1ccc3c(c1CNCC2)OCO3` showed a TGI [1] greater than 100 µM, a TGI [2] greater than 100 µM and a TGI [3] greater than 100 µM. The TGI [7] was greater than 100 µM, the TGI [8] was greater than 100 µM and the TGI [9] was greater than 100 µM. It also gave a TGI [10] greater than 100 µM.
Work on `CC(C)c1cccc(C(C)C)c1NC(=O)C(=O)CC(=O)CC(c1ccccc1)c1c(O)c2ccccc2oc1=O` (configuration not stated) yielded a TGI [1] greater than 100 µM, a TGI [2] greater than 100 µM and a TGI [3] greater than 100 µM. The TGI [8] was greater than 100 µM, the TGI [9] was greater than 100 µM and the TGI [10] was greater than 100 µM.
`CNS(=O)(=O)c1ccccc1C(=N)c1ccccc1` was tested, and the TGI [1] was greater than 100 µM, the TGI [2] was greater than 100 µM and the TGI [3] was greater than 100 µM. It also gave a TGI [4] greater than 100 µM, a TGI [5] greater than 100 µM and a TGI [6] greater than 100 µM. For the same molecule, the TGI [7] was greater than 100 µM, the TGI [8] was greater than 100 µM and the TGI [10] was greater than 100 µM.
In the case of `C=CC[N+]1(CCO)CCN=C1CCCCCCCCCCCCC` (configuration not stated), the GI50 [1] is reported as 1.81 µM, the TGI [1] is reported as 3.3 µM and the GI50 [2] is reported as 1.75 µM. It also gave a TGI [2] of 3.12 µM, a GI50 [4] of 1.61 µM and a TGI [4] of 3.1 µM. For the same molecule, the GI50 [5] was 1.65 µM, the TGI [5] was 3.47 µM and the GI50 [6] was 1.37 µM. For the same molecule, the TGI [6] was 2.85 µM, the GI50 [7] was 1.56 µM and the TGI [7] was 2.9 µM. It also gave a GI50 [9] of 1.76 µM, a TGI [9] of 3.27 µM and a GI50 [10] of 1.72 µM. The TGI [10] was 3.09 µM.
`Cc1nc2nn(Cc3ccccc3)cc2c(=O)o1` was tested, and the TGI [1] was greater than 100 µM, the TGI [7] was greater than 100 µM and the TGI [8] was greater than 100 µM. For the same molecule, the TGI [9] was greater than 100 µM and the TGI [10] was greater than 100 µM.
For `O=[N+]([O-])c1cccc(/C=C/c2ccccn2)c1`, the GI50 [1] was 35.6 µM, the TGI [1] was greater than 100 µM and the GI50 [2] was greater than 100 µM. It also gave a TGI [2] greater than 100 µM, a GI50 [4] of 23 µM and a TGI [4] greater than 100 µM. It also gave a GI50 [5] of 1.82 µM, a TGI [5] greater than 100 µM and a GI50 [6] of 29.1 µM. For the same molecule, the TGI [6] was greater than 100 µM, the GI50 [7] was 5.47 µM and the TGI [7] was 75.4 µM. The GI50 [8] was 24.7 µM, the TGI [8] was greater than 100 µM and the GI50 [9] was greater than 100 µM. For the same molecule, the TGI [9] was greater than 100 µM, the GI50 [10] was 40.7 µM and the TGI [10] was greater than 100 µM.
`CCOc1ccccc1NC(=O)C(=O)C(C(=O)c1ccc2ccccc2c1)C1OC(=O)c2ccccc21` (configuration not stated) gave a TGI [2] of 35.5 µM, a TGI [3] of 27.4 µM and a TGI [7] of 31 µM. The TGI [8] was 53.1 µM, the TGI [9] was 50.9 µM and the TGI [10] was 31.2 µM.
`O=C1OCC2=C1C(c1cccc(C(F)(F)F)c1)c1cc3c(cc1N2CCO)OCO3` (configuration not stated) gave a GI50 [1] of 0.801 µM, a TGI [1] greater than 50 µM and a GI50 [2] of 4.54 µM. It also gave a TGI [2] greater than 50 µM, a GI50 [3] of 0.573 µM and a TGI [3] of 2.16 µM. It also gave a GI50 [4] of 1.77 µM, a TGI [4] greater than 50 µM and a GI50 [6] of 0.926 µM. The TGI [6] was greater than 50 µM, the GI50 [8] was 4.78 µM and the TGI [8] was greater than 50 µM. The GI50 [9] was greater than 50 µM, the TGI [9] was greater than 50 µM and the GI50 [10] was 1.97 µM. The TGI [10] was greater than 50 µM.
With `Fc1ccc2c(c1)SC1Oc3ccccc3-c3c1c-2nn3-c1ccccc1` (configuration not stated) the TGI [1] was greater than 100 µM, the TGI [2] was greater than 100 µM and the TGI [3] was greater than 100 µM. For the same molecule, the TGI [7] was greater than 100 µM, the TGI [8] was greater than 100 µM and the TGI [9] was greater than 100 µM. The TGI [10] was greater than 100 µM.
`O=C(N[C@@H]1C=CCC[C@@H]1c1ccccc1)OCc1ccccc1` was tested, and the TGI [1] was 45.6 µM, the TGI [2] was 46.5 µM and the TGI [3] was 30.9 µM. The TGI [7] was 60.6 µM, the TGI [8] was 59 µM and the TGI [9] was 35.2 µM. For the same molecule, the TGI [10] was 34.6 µM.
Work on `CC(C)[C@H]1CO[C@@H]2O[C@H](C)CC(=O)N21` yielded a TGI [1] greater than 100 µM, a TGI [2] greater than 100 µM and a TGI [3] greater than 100 µM. It also gave a TGI [7] greater than 100 µM, a TGI [8] greater than 100 µM and a TGI [9] greater than 100 µM. For the same molecule, the TGI [10] was greater than 100 µM.
With `C/C=C/C(=O)[C@@H](O)C(C)C` the TGI [1] was greater than 100 µM, the TGI [2] was greater than 100 µM and the TGI [3] was greater than 100 µM. It also gave a TGI [7] greater than 100 µM, a TGI [8] greater than 100 µM and a TGI [9] greater than 100 µM.
